Earlier results, collected in US20100305045A1, “OMEGA-3 OIL CONTAINING OPHTHALMIC EMULSIONS” (Abbott Medical Optics Inc., priority 2009, published 2010).

Details: HLB value as reported by the manufacturer of the commercial product, or rough average

Substance	HLB
Polyoxyethylene(40) nonylphenyl ether [Igepal ® CO-890]	17.8
Polyoxyethylene(2) stearyl ether [Brij ® 72]	4.9
Polyoxyethylene(2) cetyl ether [Brij ® 52]	5.3
Polyoxyethylene(40) isooctylphenyl ether [Triton ® X-405]	17.9
Polyoxyethylene(2) oleyl ether [Brij ® 92/93]	4.9
Polyoxyethylene(100) stearyl ether [Brij ® 700]	18.8
2,4,7,9-Tetramethyl-5-decyne-4,7-diol ethoxylate (15 EO/OH)	17.0
Polyoxyethylene(4) lauryl ether [Brij ® 30]	9.7
2,4,7,9-Tetramethyl-5-decyne-4,7-diol ethoxylate	8.0
Polyoxyethylene sorbitol hexaoleate	10.2

The remaining lines, values ahead:

HLB	Substance
6.7	Sorbitan monopalmitate
19.0	Polyoxyethylene(150) dinonylphenyl ether [Igepal ® DM-970]
11.4	Polyoxyethylene sorbitan tetraoleate
4.6	Polyoxyethylene(2) nonylphenyl ether [Igepal CO-210]
14.2	Polyoxyethylene(12) nonylphenyl ether [Igepal ® CO-720]
4.3	Polyoxyethylene(2) isooctylphenyl ether [Igepal ® CA-210]
4.3	Sorbitan monooleate
19.0	Polyoxyethylene(100) nonylphenyl ether [Igepal ® CO-990]
14.6	Polyoxyethylene(12) isooctylphenyl ether [Igepal ® CA-720]
14.5	Polyoxyethylene(12) tridecyl ether
10.0	Polyoxyethylene(5) nonylphenyl ether [Igepal ® CO-520]
14.5	Polyoxyethylene(18) tridecyl ether
10.0	Polyoxyethylene(5) isooctylphenyl ether [Igepal ® CA-520]
4.7	Sorbitan monostearate

Same assay, conditions: HLB value as reported by the manufacturer of the commercial product, or rough average; listed as Brij 72

HLB	Substance
approximately 4.9	Polyoxyethylene(2) stearyl ether [Brij ® 72]
